Experimental findings from patent US11730714B2, “Compounds for the treatment of neuromuscular disorders” (NMD PHARMA A/S, priority 2017, dated 2023) are described below.

The first test concerns isolated rat soleus muscles. The experiment in a line: Recovery of nerve-stimulated force in isolated rat soleus muscles exposed to sub-maximal tubocurarine.
Settings: not given
It counts as cell-based. The procedure: Experiments were performed using rat soleus muscles from either young (4-wk-old) or adult Wistar rats (12-14-week-old). Animal handling, killing and isolation of muscle is described elsewhere All experiments were performed using normal Krebs-Ringer bicarbonate solution (NKR). In solutions with elevated Mg^2+, MgCl2 was added to NKR-solution causing minor increases in osmolarity and ionic strength. In solutions with elevated K^+, 4 mM NaCl was replaced by 4 mM KCl in the NKR.
In all contraction experiments, isometric force production was determined and force produced during contractions was quantified by measuring the integral of the force response (AUC). Stimulation and force recordings have been described elsewhere. […] In these latter experiments, extracellular recordings of action potentials (M-waves) could be measured without temporal overlap with stimulation artefacts.
The aim was to find compounds that by inhibition of CIC-1 channels can recover nerve-stimulated force under conditions of fatigue including conditions where fatigue is caused by compromised neuromuscular transmission. Neuromuscular transmission dysfunction can develop because of both pre- and/or post-synaptic complications in connection with a disorder or as part of neuromuscular blockade during/after surgery. In the initial series of drug testing, experiments were performed with isolated muscles in the presence of sub-maximal ACh receptor antagonist tubocurarine. Since the inclusion of tubocurarine caused a partial loss of neuromuscular transmission this experiment mimics the conditions in myasthenia gravis and neuromuscular blockade. To mimic conditions with pre-synaptic complication (Lambert Eaton syndrome, motor neuron disorder, polyneuropathy) the intact nerve-muscle preparations were incubated at elevated extracellular Mg^2+, which is known to suppress release of ACh from nerve terminals of motor neurons.
The experiments also illustrate that field stimulation of the entire nerve-muscle preparation selectively activates the motor nerve when short-duration pulses (0.02 vs 0.2 ms) were used. In FIG. 1A the preparation was stimulated either via field stimulation or via nerve-stimulation using a suction electrode. With the suction electrode only the nerve could be stimulated. When exposed to a submaximal concentration of the ACh receptor antagonist tubocurarine (0.2 μM) a clear drop in peak force and a further decline (or fade) in force during the stimulation developed. This drop in force clearly reflected compromised neuromuscular transmission, as the decline in peak force and fading were not seen with direct stimulation of the muscle. […] Thus, loss of M-wave and force with tubocurarine reflected partial blockade of neuromuscular function. Such fading of force and M-waves during stimulation represent clinical hallmarks of both myasthenia gravis and neuromuscular blockade in connection with surgery. In FIG. 1B, observations with normal (0.2 ms) and short-duration (0.02 ms) pulses have been compared. It can be seen that only with short-duration pulses did tubocurarine cause a decline in peak force and fading (FIG. 1B). This confirms that short-duration pulses in field stimulation could be used as specific nerve-stimulation. […] Elevated extracellular Mg^2+ could thus be used to partially block neuromuscular transmission and thus be used as a model of conditions with compromised pre-synaptic function (Lambert Eaton syndrome, amyotrophic lateral sclerosis, spinal muscular atrophy). […]
Turning to `CC(Oc1ccc(Cl)cc1)C(=O)Oc1ccc(Cl)cc1` (centres unmarked) [Compound C11, 4-chlorophenyl 2-(4-chlorophenoxy)propanoate], the “50 μM % change after addition (AUC of nerve-stimulated force)” value is 46% and the “150 μM % change after addition (AUC of nerve-stimulated force)” value turned out to be 54%.

The next test concerns the target T1, CIC-1 channels (Rattus norvegicus, UniProt P35524).
T1 construct: Gm was measured in individual fibres of whole rat soleus muscles; from tissue; host or cells: soleus muscle of adult (12-14 week old) Wistar rats
T1 sequence (P35524 1-994): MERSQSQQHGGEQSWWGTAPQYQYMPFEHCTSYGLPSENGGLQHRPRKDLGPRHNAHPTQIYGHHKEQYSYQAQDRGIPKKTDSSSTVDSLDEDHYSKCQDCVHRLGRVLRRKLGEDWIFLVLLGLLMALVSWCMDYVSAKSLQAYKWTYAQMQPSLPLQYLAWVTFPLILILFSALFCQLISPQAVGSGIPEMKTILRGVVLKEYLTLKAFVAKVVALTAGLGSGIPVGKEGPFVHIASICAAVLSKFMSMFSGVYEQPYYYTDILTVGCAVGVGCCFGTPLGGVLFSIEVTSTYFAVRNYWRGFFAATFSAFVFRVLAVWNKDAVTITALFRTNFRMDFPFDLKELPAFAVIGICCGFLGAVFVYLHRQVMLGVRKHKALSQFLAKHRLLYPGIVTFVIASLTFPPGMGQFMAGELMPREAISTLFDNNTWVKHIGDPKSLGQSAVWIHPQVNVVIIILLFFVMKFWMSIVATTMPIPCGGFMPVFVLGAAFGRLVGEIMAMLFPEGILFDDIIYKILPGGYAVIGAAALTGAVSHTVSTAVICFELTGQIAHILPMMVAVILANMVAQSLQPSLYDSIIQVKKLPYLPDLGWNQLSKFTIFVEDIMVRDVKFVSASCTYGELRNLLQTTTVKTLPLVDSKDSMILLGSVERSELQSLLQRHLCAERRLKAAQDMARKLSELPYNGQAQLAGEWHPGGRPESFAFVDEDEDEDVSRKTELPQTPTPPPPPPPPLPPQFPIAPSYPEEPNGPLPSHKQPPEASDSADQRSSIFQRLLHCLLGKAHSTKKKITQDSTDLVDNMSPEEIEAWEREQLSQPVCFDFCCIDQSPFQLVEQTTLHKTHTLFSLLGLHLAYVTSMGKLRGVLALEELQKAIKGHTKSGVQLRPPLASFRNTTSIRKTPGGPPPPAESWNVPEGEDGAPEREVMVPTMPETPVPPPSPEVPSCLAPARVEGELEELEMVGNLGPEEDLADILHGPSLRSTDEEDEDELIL
The experiment in a line: Electrophysiological measurement of compound inhibition of CIC-1 in rat muscle (Gm, EC50). It counts as cell-based. Conditions: rat soleus muscle fibres, three micro-electrode Gm measurement; read-out: EC50 (inhibition of ClC-1 ion channel, Gm).
One may read the EC50 as the concentration needed to bring the measured effect to its halfway point. Turning to `[2H]CC([2H])[C@H](Oc1ccc(Br)cc1)C(=O)O` (stereo partly drawn) [Compound A-76, (2S)-2-(4-bromophenoxy)(3,4-^2H2)butanoic acid], the EC50 worked out at 3.8 ± 2.1 µM.

`[2H][C@@](CF)(Oc1ccc(Br)cc1)C(=O)O` [Compound A-82, (2R)-2-(4-bromophenoxy)-3-fluoro(2-^2H)propanoic acid]: the EC50 was 5.2 ± 1.3 µM.

Still in this test, the particulars now being: rat soleus muscle fibres; sigmoidal fit of average Gm; read-out: EC50 (inhibition of CIC-1, reduction of Gm).
For the compound `CC(C)[C@@H](Oc1ccc(Br)cc1F)C(=O)O` [Compound A-4, (2R)-2-(4-bromo-2-fluoraphenoxy)-3-methylbutanoic acid], the EC50 is above 80 µM.

The next test deals with T2, human CIC-1 channels (Homo sapiens, UniProt P35523).
T2 construct: host or cells: CHO (Chinese hamster ovary) cells, cryopreserved, used directly after thawing
T2 sequence (P35523 whole entry): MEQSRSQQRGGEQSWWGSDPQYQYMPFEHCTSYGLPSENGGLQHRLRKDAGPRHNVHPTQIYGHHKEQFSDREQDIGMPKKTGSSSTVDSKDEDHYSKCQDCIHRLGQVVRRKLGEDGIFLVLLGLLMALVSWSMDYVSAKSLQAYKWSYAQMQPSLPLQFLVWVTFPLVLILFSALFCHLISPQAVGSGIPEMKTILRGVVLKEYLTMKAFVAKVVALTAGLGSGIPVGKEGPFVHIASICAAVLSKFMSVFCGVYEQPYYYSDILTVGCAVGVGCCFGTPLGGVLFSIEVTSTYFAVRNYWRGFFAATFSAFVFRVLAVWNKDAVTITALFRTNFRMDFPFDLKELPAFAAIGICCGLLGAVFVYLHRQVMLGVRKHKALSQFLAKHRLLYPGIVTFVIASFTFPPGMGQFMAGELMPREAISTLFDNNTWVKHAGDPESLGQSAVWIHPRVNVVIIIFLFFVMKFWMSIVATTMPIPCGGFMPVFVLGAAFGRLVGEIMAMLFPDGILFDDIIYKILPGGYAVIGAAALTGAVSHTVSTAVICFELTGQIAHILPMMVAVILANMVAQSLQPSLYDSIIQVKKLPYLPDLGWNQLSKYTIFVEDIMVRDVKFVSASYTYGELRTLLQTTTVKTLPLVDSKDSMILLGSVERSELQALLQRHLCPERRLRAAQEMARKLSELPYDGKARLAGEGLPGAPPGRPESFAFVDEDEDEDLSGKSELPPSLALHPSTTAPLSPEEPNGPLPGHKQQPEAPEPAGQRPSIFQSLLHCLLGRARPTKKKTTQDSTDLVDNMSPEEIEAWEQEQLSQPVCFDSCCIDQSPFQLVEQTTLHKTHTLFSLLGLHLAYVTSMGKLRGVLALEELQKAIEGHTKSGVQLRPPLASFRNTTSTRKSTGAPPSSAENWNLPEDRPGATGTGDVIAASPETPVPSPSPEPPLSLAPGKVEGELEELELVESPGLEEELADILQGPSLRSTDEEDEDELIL
In words: Automated patch-clamp on human CIC-1 expressed in CHO cells (shift in half activation voltage V1/2). It counts as cell-based. Conditions: compound in intracellular solution vs vehicle control patches; CHO cells expressing human ClC-1. The procedure:
FIG. 13A-13B: FIG. 13A illustrates the voltage protocol used to evoke currents in whole cell patches of CHO cells expressing human CIC-1 channels.
The investigatory goal of these experiments was to evaluate how compounds affect the open probability and current amplitude of human CIC-1 channels expressed in CHO cells. Experiments were performed using an automated patch clamp system that allowed high throughput testing of whole cell patches together with both intracellular and extracellular addition of compound.
Automated whole cell patch clamp experiments were performed with the Qpatch 16 system (Sophion Bioscience, Ballerup, Denmark) at room temperature. Data acquisition and analysis were performed in the Qassay software (ver. 5.6, Odense).
To obtain tail currents, the membrane potential was stepped to −100 mV after each test voltage for 300 ms and then relaxed to −30 mV for 2 sec between sweeps (FIG. 3). I/V relationships for whole cell instant and steady state current amplitudes were obtained by plotting average current densities at the beginning and at the end of the 300 ms step against the membrane potential (FIG. 4).
In order to determine the relative overall open probability (Po), the instantaneous tail currents were normalized to the maximal tail current obtained following the most positive voltage step and plotted against the test voltage. Plots of normalized tail currents from each whole cell patch were then fitted to a Boltzmann function allowing determination of half activation voltages (V1/2, FIG. 5).
Osmolality adjusted to […] using sucrose.
Intracellular solutions contained: 80 mM […], 60 mM CsCl, 5/1 mM KOH/EGTA, 10 mM HEPES, 10 mM NaCl, pH adjusted to 7.2 with NaOH (2 M). Osmolality adjusted to ˜320 mOsm using sucrose.
Cells used in patch clamp experiments were Chinese hamster ovary cells (CHO) constitutively expressing human CIC-1 channels. The amino acid sequence encoded by the cDNA used to create this cell line was identical to the translated sequence for GenBank accession number NM_000083.2. Cells were produced by Charles River (Catalogue CT6175, Cleveland Ohio, USA) in a cryopreserved format. Experiments were performed on the cells directly after thawing (3×10^6 cells used in each experiment).
To evaluate the compound effect on CIC-1, when applied directly to the intracellular side of the cell membrane, the half activation voltage, V1/2, was determined from whole cell patches with compound added to the intracellular solution and then compared to V1/2 determined from control cell patches with only vehicle added to the intracellular solution. Additionally, the effect of extracellular added compound was evaluated by determine V1/2 and steady state current amplitudes before and after exchanging the extracellular solution to contain compound.
The difference in half activation voltage of CIC-1 channels, […]V1/2, was determined as the difference between the cell patches treated intracellularly with compound and control cells patches and is reported in Table 4 below. A positive shift in […]V1/2 is reflecting CIC-1 channel inhibition by the tested compound. P-values of <0.05 is considered significant.
A general note: The patch-clamp technique gives a direct electrical read-out from membranes.
On to `C#CC[C@H](Oc1ccc(Br)cc1F)C(=O)O` [Compound A-69, (2S)-2-(4-bromo-2-fluorophenoxy)pent-4-ynoic acid], for which the “ΔV½ (difference in half activation voltage of ClC-1)” value is on record as 32.6 mV.

As to `C#CC[C@H](Oc1ccc(Br)cc1Cl)C(=O)O` [Compound A-67, (2S)-2-(4-bromo-2-chlorophenoxy)pent-4-ynoic acid], the “ΔV½ (difference in half activation voltage of ClC-1)” value is on record as 37.8 mV.

As for `CC(C)[C@H](Oc1ccc(Br)cc1F)C(=O)O` [Compound A-27, (2S)-2-(4-bromo-2-fluorophenoxy)-3-methylbutanoic acid], the “ΔV½ (difference in half activation voltage of ClC-1)” value was found to be 20.2 mV.

As to `C[C@H](Oc1ccc(Br)cc1I)C(=O)O` [Compound A-8, (2S)-2-(4-bromo-2-iodophenoxy)propanoic acid], the “ΔV½ (difference in half activation voltage of ClC-1)” value came to 9.4 mV.

Consider `CC[C@H](Oc1ccc(Br)cc1F)C(=O)O` [Compound A-58, (2S)-2-(4-bromo-2-fluorophenoxy)butanoic acid], for which the “ΔV½ (difference in half activation voltage of ClC-1)” value is listed as 28.2 mV.

With `O=C(O)[C@@H](Oc1ccc(Br)cc1F)C(F)F` [Compound A-9, (2R)-2-(4-bromo-2-fluorophenoxy)-3,3-difluoropropanoic acid], the “ΔV½ (difference in half activation voltage of ClC-1)” value is reported as 15.2 mV.

`[2H]c1cc(Br)cc([2H])c1O[C@@H](C)C(=O)O` [Compound A-6, (2S)-2-[4-bromo(2,6-^2H2)phenoxy]propanoic acid]: the “ΔV½ (difference in half activation voltage of ClC-1)” value was 13.0 mV.

Turning to `C#CC[C@H](Oc1ccc(Br)cc1Br)C(=O)O` [Compound A-66, (2S)-2-(2,4-dibromophenoxy)pent-4-ynoic acid], the “ΔV½ (difference in half activation voltage of ClC-1)” value is reported as 27.4 mV.

As for `O=C(O)[C@H](CCF)Oc1ccc(Br)cc1` [Compound A-87, (2S)-2-(4-bromophenoxy)-4-fluorobutanoic acid], the “ΔV½ (difference in half activation voltage of ClC-1)” value was 16.4 mV.

On to `O=C(O)[C@@H](Oc1ccc(Br)cc1F)C1CC1` [Compound A-89, (2S)-2-(4-bromo-2-fluorophenoxy)-2-cyclopropylacetic acid], for which the “ΔV½ (difference in half activation voltage of ClC-1)” value amounted to 10.3 mV.

As to `C[C@H](Oc1ccc(Cl)cc1F)C(=O)O` [Compound A-38, (2S)-2-(4-chloro-2-fluorophenoxy)propanoic acid], the “ΔV½ (difference in half activation voltage of ClC-1)” value came to 17.4 mV.

Consider `O=C(O)[C@H](CF)Oc1ccc(Br)cc1` [Compound A-26, (2R)-2-(4-bromophenoxy)-3-fluoropropanoic acid], for which the “ΔV½ (difference in half activation voltage of ClC-1)” value amounted to 19.7 mV.

`[2H]CC([2H])[C@H](Oc1ccc(Br)cc1)C(=O)O` (stereo partly drawn) [Compound A-76, (2S)-2-(4-bromophenoxy)(3,4-^2H2)butanoic acid]: the “ΔV½ (difference in half activation voltage of ClC-1)” value is reported as 26.2 mV.

Turning to `O=C(O)[C@H](CCF)Oc1ccc(Br)cc1F` [Compound A-85, (2S)-2-(4-bromo-2-fluorophenoxy)-4-fluorobutanoic acid], the “ΔV½ (difference in half activation voltage of ClC-1)” value is 12.5 mV.

On to `[2H][C@@](CF)(Oc1ccc(Br)cc1)C(=O)O` [Compound A-82, (2R)-2-(4-bromophenoxy)-3-fluoro(2-^2H)propanoic acid], for which the “ΔV½ (difference in half activation voltage of ClC-1)” value was 19.0 mV.

For `COC[C@H](Oc1ccc(Br)cc1Br)C(=O)O` [Compound A-74, (2S)-2-(2,4-dibromophenoxy)-3-methoxypropanoic acid], the “ΔV½ (difference in half activation voltage of ClC-1)” value is 10.4 mV.

Take `C[C@H](Oc1ccc(Br)cc1Br)C(=O)O` [Compound A-40, (2S)-2-(2,4-dibromophenoxy)propanoic acid]: the “ΔV½ (difference in half activation voltage of ClC-1)” value was found to be 5.19 mV.

On to `C[C@@H](F)[C@H](Oc1ccc(Br)cc1F)C(=O)O` [Compound A-95, (2R,3R)-2-(4-bromo-2-fluorophenoxy)-3-fluorobutanoic acid], for which the “ΔV½ (difference in half activation voltage of ClC-1)” value was determined as 10.3 mV.
